Where two headings read alike, the source gives them in different places.
What was measured:
[1] = tested on: spleen T cells; assay: T cell proliferation inhibition (CFSE, FACS), CD3/CD28-activated spleen T cells; format: cell-based, C57BL/6 mice; conditions: for inhibition at 10 µM / inhibition at 30 µM / inhibition at 50 µM: Mus musculus, T-cell, read-out: Proliferation inhibition rate (%)
Procedure: To investigate whether the compounds obtained in the Preparation Example have an inhibitory effect on T cell proliferation, the T cell proliferation was determined ex vivo using the fluorescent dye carboxyfluorescein diacetate succinimidyl ester (CFSE), which binds to intracellular molecules by covalent bonds.
Spleens were harvested and minced from C57BL/6 mice at 7 weeks of age, and then single cells were isolated using a strainer (40 μm pore size, SPL). Red blood cells were removed using ACK (Ammonium-Chloride-Potassium) lysis buffer to isolate only leukocytes. Subsequently, CD90.2 microbeads (130-121-278, Miltenyi Biotech.) were added, and subjected to react at 4° C. for 20 minutes. After that, spleen T cells were isolated using a MACS Magnetic Stand and LS column. The isolated T cells from the spleen were resuspended in 1 mL of Free media (RPMI-1640+200 U/mL penicillin+200 μg/mL streptomycin), followed by the addition of 0.3 μL of CFSE (10 mM), and reacted at 37° C. for 5 minutes. Subsequently, 10 mL of Free media was added to stop the reaction, and the cells were centrifuged to obtain the cell pellet. RPMI 1640 medium containing 10% FBS, 100 U/mL penicillin, and 100 μg/mL streptomycin was added to suspend the cells, and 2×10^5 cells per well were seeded into a 96-well plate and T cells were activated by treatment with CD3 and CD28 antibodies (each at 0.5 μg/mL).
The compound diluted in DMSO was treated in triplicate at concentrations of 10 μM, 30 μM, and 50 μM, respectively. After incubation at 37° C. with 5% CO2 for 3 days, cell proliferation levels were determined using a FACS Canto machine.
In the FACS graph of FIG. 1, the y-axis represents the quantity (number) of cells, while the x-axis represents the fluorescence level of the cells. […] This reduction in CFSE fluorescence results in a leftward shift along the x-axis in the graph. This indicates cell proliferation.
To collectively indicate the proliferation inhibition rate for the experimental results, the relative value of the proliferation amount after compound administration to the proliferation amount after CD3/CD28+DMSO administration was calculated. Subsequently, it was converted into an inhibition amount and expressed as a percentage, thereby determining the proliferation inhibition rate. Specifically, the proliferation inhibition rate was calculated as follows: […]

[2] = tested on: T lymphocyte cell line Jurkat E6-1; assay: Cytotoxicity experiment (CCK-8, relative cell survival); format: cell-based; conditions: 24 hours, untreated cells = 100%
Procedure: To evaluate the cytotoxicity of the compound according to the present invention, the following experiment was conducted.
The T lymphocyte cell line Jurkat E6-1, purchased from the Korean Cell Line Bank, was cultured in RPMI-1640 medium comprising 10% FBS, 100 U/mL penicillin, and 100 μg/mL streptomycin. After culturing, the cells were harvested and centrifuged at 1,300 rpm for 5 minutes. After removal of the supernatant, the cells were resuspended in the same medium at a concentration of approximately 2.2×10^5 cells/mL, and 90 μL of the cell suspension was distributed per well into a 96-well plate (Costar 96 well cell culture plate, Corning). After treating 10 μL of each compound at different concentrations onto the respective wells of the plate, it was cultured for 24 hours at 37° C. in a 5% CO2 incubator. Subsequently, 10 μL of CCK-8 was added to each well, and it was cultured again for 2 hours at 37° C. in a 5% CO2 incubator. Absorbance was then measured at 450 nm to determine the relative cell survival rate compared to untreated cells, as shown in Table 4.
The values listed in Table 4 represent the relative cell survival rates in the groups treated with each compound at different concentrations, with the cell survival rate of untreated cells set as 100%.

[3] = 72 h, Table 2, 10 μM, 3 days, relative to CD3/CD28+DMSO
[4] = 72 h, Table 2, 30 μM, 3 days, relative to CD3/CD28+DMSO
[5] = 72 h, Table 2, 50 μM, 3 days, relative to CD3/CD28+DMSO
[6] = Table 3 (compounds not belonging to Formula 1), 10 μM
[7] = Table 3 (compounds not belonging to Formula 1), 30 μM
[8] = Table 3 (compounds not belonging to Formula 1), 50 μM
[9] = Table 2, 10 μM, 3 days, relative to CD3/CD28+DMSO
[10] = Table 2, 30 μM, 3 days, relative to CD3/CD28+DMSO
[11] = Table 2, 50 μM, 3 days, relative to CD3/CD28+DMSO

Compound | inhibition at 10 µM [1, 3] | inhibition at 30 µM [1, 4] | inhibition at 50 µM [1, 5] | Relative cell survival rate (%) ([2]; 10 μM) | Relative cell survival rate (%) ([2]; 20 μM) | Relative cell survival rate (%) ([2]; 30 μM) | Relative cell survival rate (%) ([2]; 50 μM) | other results
CCCCCCCCCCCCNC(=O)c1ccccc1Oc1ccccc1 [Compound 61] | 16% | 86% | 98% | 96% | 94% | 76% | 74% | 
CCCCCCCCCCCCNC(=O)c1ccccc1I [Compound 63] | 30% | 78% | 89% | 70% | 78% | 75% | 79% | 
CCCCCCCCCCCCNC(=O)c1c(Cl)cccc1Cl [Compound 39] | 7% | 61% | 89% | 89% | 102% | 78% | 79% | 
CCCCCCCCCCCCNC(=O)c1ccccc1-c1ncc[nH]1 [Compound 52] | 42% | 95% | 100% | 88% | 85% | 84% | 84% | 
CCCCCCCCCCC(CNCc1ccccc1Br)Cc1ccccc1Br (stereo not shown) [Compound 44] |  |  |  | 100% | 98% | 94% | 93% | 
CCCCCCCCCCCCNC(=O)c1cc2ccccc2cc1N [Compound 23] |  |  |  | 66% | 62% | 62% | 54% | 
CCCCCCCCCCCCNC(=O)c1ncccc1N [Compound 67] | 35% | 88% | 100% | 94% | 93% | 93% | 92% | 
CCCCCCCCCCCCNC(=O)c1ccccc1C(=O)c1ccc(Cl)cc1 [Compound 16] | 0% | 100% | 100% | 121% | 101% | 92% | 85% | 
CCCCCCCCCCCCNC(=O)c1ncccc1Cl [Compound 11] | 10% | 62% | 99% |  |  |  |  | 
CCCCCCCCCCCCNC(=O)c1ccc2cccc(O)c2n1 [Compound 21] |  |  |  | 101% | 106% | 109% | 124% | 
CCCCCC(=O)Nc1cccc(CNC(=O)c2ccccc2Br)c1 [Compound 49] |  |  |  | 98% | 98% | 98% | 98% | 
CCCCCCCCCCCCNC(=O)c1cccc2ccccc12 [Compound 18] |  |  |  | 102% | 101% | 99% | 99% | 
CCCCCCCCCCCCNC(=O)c1cccnc1SC [Compound 24] |  |  |  | 71% | 68% | 61% | 54% | 
O=C(Nc1ccccc1Br)c1ccccc1Br [Compound 9] |  |  |  |  |  |  |  | inhibition at 10 µM [1, 6]: 0%; inhibition at 30 µM [1, 7]: 0%; inhibition at 50 µM [1, 8]: 0%; cell proliferation read by FACS (FIG. 2) ([1]; even at a concentration of 50 μM): no inhibition of cell proliferation
CCCCCCCCCCCCNC(=O)c1cccnc1S [Compound 80] |  |  |  |  |  |  |  | Proliferation inhibition rate (%) [1, 9]: 43%; Proliferation inhibition rate (%) [1, 10]: 100%; Proliferation inhibition rate (%) [1, 11]: 100%
O=C(NCCCc1ccccc1)c1ccccc1Br [Compound 4] |  |  |  |  |  |  |  | inhibition at 10 µM [1, 6]: 23%; inhibition at 30 µM [1, 7]: 12%; inhibition at 50 µM [1, 8]: 16%

Compound | inhibition at 10 µM [1, 3] | inhibition at 30 µM [1, 4] | inhibition at 50 µM [1, 5] | Relative cell survival rate (%) ([2]; 10 μM) | Relative cell survival rate (%) ([2]; 20 μM) | Relative cell survival rate (%) ([2]; 30 μM) | Relative cell survival rate (%) ([2]; 50 μM) | other results
Cc1ccccc1NC(=O)c1ccccc1F [Compound 3] |  |  |  |  |  |  |  | inhibition at 10 µM [1, 6]: 9%; inhibition at 30 µM [1, 7]: 15%; inhibition at 50 µM [1, 8]: 18%
O=C(Nc1ccccc1)c1ccncc1Br [Compound 1] |  |  |  |  |  |  |  | inhibition at 10 µM [1, 6]: 9%; inhibition at 30 µM [1, 7]: 6%; inhibition at 50 µM [1, 8]: 7%
CCCCCCCCCCCCNC(=O)c1ccc2ccccc2n1 [Compound 22] |  |  |  | 42% | 42% | 39% | 36% | 
CCCCCCCCCCCCNC(=O)c1ccc(Cl)cc1Cl [Compound 60] | 10% | 72% | 98% |  |  |  |  | 
CCCCCC(=O)Nc1ccccc1CNC(=O)c1ccccc1Br [Compound 48] |  |  |  | 100% | 99% | 99% | 98% | 
CCCCCCCCCCCCNS(=O)(=O)c1cnccc1O [Compound 72] | 68% | 80% | 86% |  |  |  |  | 
CCCCCCCCCCCCNC(=O)c1cccnc1OC [Compound 32] | 12% | 42% | 54% |  |  |  |  | 
CCCCCCCCCCCCNC(=O)c1ncccn1 [Compound 79] | 46% | 88% | 100% |  |  |  |  | 
O=C(NCCCCCCCCCC1CO1)c1ccccc1Br (stereo not shown) [Compound 17] |  |  |  | 106% | 80% | 80% | 66% | 
CCCCCCCCCCCCNS(=O)(=O)c1ccccc1N [Compound 46] |  |  |  |  |  |  |  | Proliferation inhibition rate (%) [1, 9]: 47%; Proliferation inhibition rate (%) [1, 10]: 94%; Proliferation inhibition rate (%) [1, 11]: 93%
CCCCCCCCCCCC(=O)Nc1ccccc1Br [Compound 42] |  |  |  | 110% | 109% | 104% | 103% | 
CCCCCCCCCCCCNC(=O)c1ccnc(C)c1 [Compound 15] | 10% | 35% | 90% |  |  |  |  | 
CCCCCC(=O)Nc1ccc(CNC(=O)c2ccccc2Br)cc1 [Compound 47] |  |  |  | 98% | 97% | 97% | 96% | 
Cc1ccccc1NC(=O)c1ccccc1Br [Compound 2] |  |  |  |  |  |  |  | inhibition at 10 µM [1, 6]: 11%; inhibition at 30 µM [1, 7]: 10%; inhibition at 50 µM [1, 8]: 11%
CCCCCCCCCCCCNC(=O)c1cc(Cl)cc(Cl)c1O [Compound 28] | 11% | 47% | 91% |  |  |  |  | 
CCCCCCCCCCCCNC(=O)c1nccc2ccccc12 [Compound 20] |  |  |  | 113% | 108% | 107% | 105% | 
